Earlier results in article PMC7753040, “Discovery of a Potent RIPK3 Inhibitor for the Amelioration of Necroptosis-Associated Inflammatory Injury” (Frontiers in Cell and Developmental Biology, 2020).

Test system: RIPK3
Parameters: method as in Mandal et al., 2014
Conditions: ref Mandal et al., 2014; cited from earlier work

Q: With `CC(C)S(=O)(=O)c1ccc2nccc(Nc3ccc4scnc4c3)c2c1` [GSK’872] as the compound, how does the “induction of on-target apoptosis” value read?
A: Its value is “able to induce on-target apoptosis”.
